Like-named read-outs stand apart in the source and are kept apart here.
Assays:
[1] = tested on: luteinizing hormone (LH) in circulating blood; test: Effect of GnRH analogs on LH levels in blood of rats (RIA); assay type: in vivo, rat; parameters: LH 180 min: unit not given here
Procedure: The experiment was carried out with 55 female Wistar 8-week old rates, equally distributed into one of the eleven test groups as detailed in the following Table 3:
The compounds were administered either orally (PO) or intraperitoneally (IP) in a molar concentration of 0.4 nmol/rat (equivalent to 0.5 μg/rat of D-Lys^6-GnRH and to 0.6 μg/rat of Fms- or Fmoc-D-Lys^6-GnRH), or of 40 nmol/rat (equivalent in 50 μg/rat of D-Lys^6-GnRH and to 60 μg/rat of Fms- or Fmoc-D-Lys^6-GnRH), in 0.5 ml PBS. Ninety and 180 minutes after administration of the appropriate treatment, blood samples were collected (1 ml), the serum was separated, and the detection of LH levels was carried out by radioimmunoassay (RIA) as previously described (Rahimipour, S., et Al. J. Med. Chem. 2001, 44, 3645-3652).

[2] = tested on: acetylcholine-induced abdominal constriction; test: Acetylcholine-induced abdominal constriction in mice (antinociceptive activity); assay type: in vivo; conditions: for activity after SC or PO administration: Fmoc-Ala 25 mg/kg; for activity after SC or PO administration / inhibition of acetylcholine-induced abdominal constriction, dose response (FIG. 3): Met-enkephalin 50 mg/kg; for antinociceptive activity in the mouse: comparable doses; for activity after SC or PO administration / antinociceptive activity in the mouse: SC or PO; for inhibition of acetylcholine-induced abdominal constriction, dose response (FIG. 3): 30 minutes after SC, Fmoc-Met-enkephalin 50 and 25 mg/kg, p<0.05
From the text: The method used in the experiments herein for evaluating the antinociceptive properties of Fmoc-Met-enkephalin is a standard method for evaluating compounds having analgesic activity such as non-steroidal anti-inflammatory agents, opioids, and other analgesics, and consists in administering acetylcholine I.P. to mice, treating the mice with the test compound and evaluating the inhibition of abdominal constriction induced by the acetylcholine.
Thus, 120 healthy CD-1, Swiss derived, albino male mice (obtained from Charles River Breeding Labs, Wilmington, Mass.) were weighed, examined for health and equally distributed into one of the 12 test groups shown in Table 1.
SC administration was carried out with a standard syrine and needle and given in a volume of 10 ml per kg. Oral administration was performed using a standard curved oval gavage needle and given in a volume of 10 ml per kg. Thirty minutes after administration of the appropriate treatment, acetylcholine (5.5 mg/kg) was injected I.P. The mice were then placed in large plastic boxes and observed for the occurrence of a single abdominal constriction (defined as a wave of construction and elongation passing caudally along the abdominal wall, accompanied by a twisting of the trunk and followed by extension of the hind limbs). […] Acetylcholine-induced abdominal constriction was repeated again at approximately 120 minutes after test compound administration.
Observations included gross evaluation of the skin and fur, eyes and mucous membranes, respiratory, circulatory, autonomic and central nervous system, somatomotor activity and behavioral patterns. Particular attention was directed to observation of tremors, convulsions, salivation, diarrhea, sleep and coma. A non-parametric analysis of quantal data (Fisher exact test) was used to determine statistical significance of results.

Candida albicans = conditions: 20 IU; Agar-RPMI plates confluent with Candida albicans, 48 hr at 30° C.; cited from earlier work
[3] = rats; Dox 10 μg/g, Fms-Dox 15 μg/g I.P.
Procedure: (§1) The experiment was carried out with a single mice or rat per compound (per metabolic cage) and it was repeated 7 times with rats and twice with mice using the protocol below. The fluorescent feature of doxorubicin enables the observation of its presence in the urine following different modes of administration.
Urine was collected several times after administration and the fluorescence emission was measured by a fluorometer. The urine collected from the untreated groups was used as a blank.
Urine was collected at 1.25, 2.5, 4 and 6 hours after administration and fluorescence intensity was measured in a fluorometer (SPECTRAmax and GEMINI of Molecular Devices Sunnyvale Fluorometer, CA, USA). Since doxorubicin is a fluorescent material, when it absorbs light energy at a wavelength of 488 nm (excitation), it undergoes an electronic state change and instantaneously emits light at 595 nm (emission). The Relative Fluorescence Units (RFU) shown in FIG. 1 indicate the peaks of light emitted at 595 nm resulting from the absorption of Dox at 488 nm.

F10.9 melanoma cell line = test: Inhibition of proliferation of cancer cells in vitro, crystal violet staining; assay type: cell-based; conditions: F10.9 melanoma cells, 96 hours, crystal violet staining (FIG. 2); read-out: IC50 (the concentration at which cell growth is inhibited by 50%)
Procedure: (§2) The efficacy of native Dox and FMS-Dox on the inhibition of proliferation of cancer cells was tested in vitro with F10.9 melanoma cell line. On day (−1) cells, were seeded in a 24-well plate (5×10^3 cells/ml/well). On day (0), cells were incubated with Dox and FMS-Dox at logarithmic dilutions from 100 μM to 0.001 μM. Survival of cells at 96 hours was determined, using the crystal violet staining method. Optical density (OD) was measured at 620 nm in an ELISA reader. The OD reading was correlated to % viable cells. When the cells were untreated the absorbance was at a maximum. IC50 (the concentration at which cell growth is inhibited by 50%) was determined. The results in FIG. 2 show IC50 values of 0.03 μM and 0.09 μM for native Dox and FMS-Dox, respectively. […] The was confirmed by HPLC analysis whereby the compound found in the growing cell medium after 96 hr corresponded to native doxorubicin.

[4] = Procedure: as §1
The experiments were repeated with mice.

[5] = HPLC analysis of growing cell medium (cleavage of Fms-Dox); assay type: in vitro ADME; conditions: growing cell medium after 96 hr
Procedure: as §2

[6] = tested on: Escherichia coli (E. coli strain N-4156-W.T); test: Antibacterial potency: E. coli replication, absorbance at 600 nm; assay type: cell-based; conditions: 37° C., L.B. medium, O.D. 600 nm
Procedure: A suspension of Escherichia coli (E. coli strain N-4156-W.T, 1% V/V in L.B. medium) is divided into plastic tubes (0.5 ml per tube) and incubated in a shaking water bath at 37° C., in either the absence or the presence of increasing concentrations of gentamicin (0.02-50 μM) and increasing concentrations of (Fms)3-gentamicin (0.02-50 μM). E. coli replication is evaluated by measuring the absorbance at 600 nm. Incubation is terminated when O.D600 nm in the tubes containing no gentamicin reaches a value of 0.6±0.1. Under our assay conditions, native gentamicin inhibited half-maximally E. coli replication at a concentration of 0.22±0.02 μM (0.1 μg/ml).

[7] = 0.4 nmol/rat (0.5 or 0.6 μg/rat) IP
[8] = 0.4 nmol/rat (0.5 or 0.6 μg/rat) PO
[9] = 40 nmol/rat (50 or 60 μg/rat) PO

For “5-oxo-Pro-His-Trp-Ser-Tyr-(Fmoc)D-Lys-Leu-Arg-Pro-Gly-NH2 [Fmoc-D-Lys^6-GnRH]”, the “LH 90 min” value [1, 7] was 50 ng/mL, the “LH 180 min” value [1, 7] was 17 and the “LH 90 min” value [1, 8] was 0 ng/mL. The “LH 180 min” value [1, 8] was 0, the “LH 90 min” value [1, 9] was 0 ng/mL and the “LH 180 min” value [1, 9] was 0. For the same molecule, the “activity when administered IP” value [1] was “active”.

In the case of “5-oxo-Pro-His-Trp-Ser-Tyr-(Fms)D-Lys-Leu-Arg-Pro-Gly-NH2 [Fms-D-Lys^6-GnRH]”, the “LH 90 min” value [1, 7] is reported as 80 ng/mL, the “LH 180 min” value [1, 7] is reported as 25 and the “LH 90 min” value [1, 8] is reported as 0.4 ng/mL. For the same molecule, the “LH 180 min” value [1, 8] was 0, the “LH 90 min” value [1, 9] was 80 ng/mL and the “LH 180 min” value [1, 9] was 35. The “activity when administered IP” value [1] was “active” and the “effect of oral administration on LH levels in the blood circulation” value ([1]; oral, 90 and 180 min after administration) was “elevation of the LH levels”.

For `C[C@H](NC(=O)OCC1c2ccccc2-c2ccccc21)C(=O)O` [Fmoc-Ala, reference compound], the “# mice abdominal construction” value ([2]; 25 mg/kg PO, 30 minutes) was 10/10, the “# mice abdominal construction” value ([2]; 25 mg/kg PO, 120 minutes) was 8/10 and the “% inhibition” value ([2]; 25 mg/kg PO, 120 minutes) was 20%. The “# mice abdominal construction” value ([2]; 25 mg/kg SC, 30 minutes) was 10/10, the “# mice abdominal construction” value ([2]; 25 mg/kg SC, 120 minutes) was 10/10 and the “activity after SC or PO administration” value [2] was “not active”. The “antinociceptive activity in the mouse” value [2] was “neither Met-enkephalin nor Fmoc-Ala is active”.

In the case of `C[C@@H]1[C@H](O)[C@@H](C)/C=C/C=C/C=C/C=C/C=C/C=C/C=C/[C@H](O[C@@H]2O[C@H](C)[C@@H](O)[C@H](N)[C@@H]2O)C[C@@H]2O[C@](O)(C[C@@H](O)C[C@@H](O)[C@H](O)CC[C@@H](O)C[C@@H](O)CC(=O)O[C@H]1C)C[C@H](O)[C@H]2C(=O)O` [native Amphotericin B, Amphotericin B], the clear zone diameter (Candida albicans) is given as 1.5 cm.

In the case of `COc1cccc2c1C(=O)c1c(O)c3c(c(O)c1C2=O)C[C@@](O)(C(=O)CO)C[C@@H]3O[C@H]1C[C@H](N)[C@H](O)[C@H](C)O1` [native Dox, Doxorubicin], the “absorption following I.P. administration (urine fluorescence)” value [3] is reported as “absorbed”, the IC50 (F10.9 melanoma cell line) is reported as 30 nM and the “absorption following I.P. administration (urine fluorescence)” value ([4]; mice, I.P.) is reported as “absorbed”. For the same molecule, the “oral absorption (urine fluorescence)” value ([4]; mouse, in vivo, po) was “orally nonabsorbed”.

With (X1)Tyr-Gly-Gly-Phe-Met [Fmoc-Met-Enk] the “# mice abdominal construction” value ([2]; 6.25 mg/kg SC, 30 minutes) was 9/10, the “% inhibition” value ([2]; 6.25 mg/kg SC, 30 minutes) was 10% and the “# mice abdominal construction” value ([2]; 6.25 mg/kg SC, 120 minutes) was 8/10. The “% inhibition” value ([2]; 6.25 mg/kg SC, 120 minutes) was 20%, the “# mice abdominal construction” value ([2]; 12.5 mg/kg PO, 30 minutes) was 6/10 and the “% inhibition” value ([2]; 12.5 mg/kg PO, 30 minutes) was 40%. For the same molecule, the “# mice abdominal construction” value ([2]; 12.5 mg/kg PO, 120 minutes) was 10/10, the “# mice abdominal construction” value ([2]; 12.5 mg/kg SC, 30 minutes) was 7/10 and the “% inhibition” value ([2]; 12.5 mg/kg SC, 30 minutes) was 30%. The “# mice abdominal construction” value ([2]; 12.5 mg/kg SC, 120 minutes) was 8/10, the “% inhibition” value ([2]; 12.5 mg/kg SC, 120 minutes) was 20% and the “# mice abdominal construction” value ([2]; 25 mg/kg PO, 30 minutes) was 6/10. The “% inhibition” value ([2]; 25 mg/kg PO, 30 minutes) was 40%, the “# mice abdominal construction” value ([2]; 25 mg/kg PO, 120 minutes) was 10/10 and the “# mice abdominal construction” value ([2]; 25 mg/kg SC, 30 minutes) was 6/10. The “% inhibition” value ([2]; 25 mg/kg SC, 30 minutes) was 40%, the “# mice abdominal construction” value ([2]; 25 mg/kg SC, 120 minutes) was 6/10 and the “% inhibition” value ([2]; 25 mg/kg SC, 120 minutes) was 40%. For the same molecule, the “activity at 120 minutes after drug administration” value ([2]; 25 mg/kg SC, 120 minutes) was “active”, the “# mice abdominal construction” value ([2]; 50 mg/kg PO, 30 minutes) was 8/10 and the “% inhibition” value ([2]; 50 mg/kg PO, 30 minutes) was 20%. The “# mice abdominal construction” value ([2]; 50 mg/kg PO, 120 minutes) was 6/10, the “% inhibition” value ([2]; 50 mg/kg PO, 120 minutes) was 40% and the “# mice abdominal construction” value ([2]; 50 mg/kg SC, 30 minutes) was 5/10. The “% inhibition” value ([2]; 50 mg/kg SC, 30 minutes) was 50%, the “# mice abdominal construction” value ([2]; 50 mg/kg SC, 120 minutes) was 9/10 and the “% inhibition” value ([2]; 50 mg/kg SC, 120 minutes) was 10%. For the same molecule, the “inhibition of acetylcholine-induced abdominal constriction (statistical significance)” value ([2]; 50 and 25 mg/kg SC and 25 and 12.5 mg/kg PO, 30 minutes) was “statistically significant inhibition”, the “inhibition of acetylcholine-induced abdominal constriction, dose response (FIG. 3)” value [2] was “statistically significant” and the “antinociceptive activity in the mouse” value [2] was “significant antinociceptive activity”. For the same molecule, the “signs of CNS depression or sedation” value ([2]; mice, during the experimental period) was “did not show signs of CNS depression or sedation”, the “statistically significant activity compared to Fmoc-Ala” value ([2]; oral administration, any dose, 120 minutes) was “did not show statistically significant activity” and the “inhibition of acetylcholine-induced abdominal constriction after oral administration (FIG. 4)” value ([2]; orally, 25 and 12.5 mg/kg after 30 minutes and 50 mg/kg after 120 minutes) was “statistically significant inhibition”.

With Fms-doxorubicin the IC50 (F10.9 melanoma cell line) was 90 nM and the “cleavage in the cell medium (HPLC analysis)” value [5] was “full recovery of the native doxorubicin”.

In the case of “Tyr-Gly-Gly-Phe-Met [Met-Enk, reference compound]”, the “# mice abdominal construction” value ([2]; 50 mg/kg PO, 30 minutes) is reported as 9/10, the “% inhibition” value ([2]; 50 mg/kg PO, 30 minutes) is reported as 10% and the “# mice abdominal construction” value ([2]; 50 mg/kg PO, 120 minutes) is reported as 9/10. The “% inhibition” value ([2]; 50 mg/kg PO, 120 minutes) was 10%, the “# mice abdominal construction” value ([2]; 50 mg/kg SC, 30 minutes) was 8/10 and the “% inhibition” value ([2]; 50 mg/kg SC, 30 minutes) was 20%. For the same molecule, the “# mice abdominal construction” value ([2]; 50 mg/kg SC, 120 minutes) was 10/10, the “inhibition of acetylcholine-induced abdominal constriction, dose response (FIG. 3)” value [2] was “not significantly active” and the “activity after SC or PO administration” value [2] was “not active”. The “antinociceptive activity in the mouse” value [2] was “neither Met-enkephalin nor Fmoc-Ala is active”.

For gentamicin [native gentamicin], the “concentration inhibiting half-maximally E. coli replication” value [6] was 0.1 µg/mL and the IC50 ([6]; read-out: concentration inhibiting half-maximally E. coli replication) was 220 ± 20 nM.

Source: patent US20050004000A1, “Oral absorbed drugs” (priority 2001, published 2005)
